Reference: patent US5614520A, “2-arylthiazole derivatives and pharmaceutical composition thereof” (priority 1990, dated 1997)
“And” between values parts separate entries of the source, which are not always exact repeats. Equal values may be shown once.

Assays:
[1] = tested on: interleukin 1 production; assay: Interleukin 1 production inhibitory activity (LPS, abdominal exuded macrophage, ELISA); format: cell-based, BALB/c mouse; details: 10^-6 M, 1 μg/ml LPS, 24 hours, mouse macrophage
Procedure: 1 ml of a 5% oyster glycogen solution was intra-abdominally administered to a BALB/c mouse (male, 8 weeks in age), and 4 days after the administration, the infiltrated abdominal exuded cells were adhered to a plastic dish for 2 hours, and 1 μg/ml of LPS was allowed to act on macrophage (1×10^6 cells). Interleukin 1 extricated on the supernatant in 24 hours was measured by an ELISA technique. The test compound (compounds of Ex. No. described in Table 3) was prepared so as to have a concentration of 10^-6 M, and the interleukin 1 production inhibitory activity was, expressed in terms of the percentage inhibition based on the amount of production of the control.

[2] = tested on: collagen arthritis; assay: Collagen arthritis inhibitory activity (bovine II type collagen in rats); format: in vivo, Lewis rats; details: 6 weeks; for Swelling: 5 times per week, right foot volume increase, control 45.5 ± 5.1; for Antibody titer of anti-collagen: serum, ELISA, control 2.04 ± 0.36
Procedure: An emulsion comprising a bovine II type collagen and incomplete Freund's adjuvant in a proportion of 1:1 were intradermally injected to Lewis rats (male, about 6 weeks in age) (one group: 8 […]) at the region of the back so that the amount of antigen was 2 mg/rat, thereby inducing arthritis. The compound of Ex. No. 35 was suspended in a 5% gum arabic solution, and orally administered 5 times per week in two groups of 10 mg/kg and 50 mg/kg from the sensitized day. Only the gum arabic solution was administered to the control. Then 6 weeks after the sensitization, the percentage increase in the volume of the right foot was measured and expressed in terms of the percentage swelling, and the anti-collagen antibody titer of the serum was measured by the ELISA technique.

[3] = tested on: serum uric acid; assay: Determination of oral administration: lowering of serum uric acid in mice; format: in vivo, ICR male mice; details: Mus musculus; ICR male mice, oral, 1 mg/kg, 2 hours after administration, serum; read-out: Activity of lowering uric acid
Procedure: Test compounds suspended in a 5% gum arabic solution was forcibly administered by oral administration (compounds of Ex. No. of Table 2, dose: 1 mg/kg) to ICR male mice (age: about 7 weeks) (one group: 6 mice) by means of an oral probe. 2 hours after the administration, thoracotomy was conducted under etherization to collect blood from the heart, and serum was removed by a conventional process. The serum uric acid was measured by a biochemical automatic analyzer (Flexigem; Electro-Nucleonics, Inc.) by using a uric acid measurement kit (UA reagent; International Reagent) to determine the percentage of the lowering of uric acid. [formula]

[4] = molecular target: T1, xanthine oxidase (Bos taurus, UniProt P80457); assay: In vitro determination of xanthine oxidase (XOD) inhibition; format: biochemical; details: xanthine oxidase from butter milk, xanthine substrate, pH 7.4, 37° C.
T1 construct: purchased Sigma Chemical Company; host or cells: butter milk
Procedure: (1) Preparation of test compounds:
Test compounds (compounds of Ex. No. listed in Table 1) were dissolved in dimethylsulfoxide and diluted with a 50 mM phosphate buffer to prepare aqueous solutions respectively having predetermined concentrations.
The inhibition rate was determined by the following equation: [formula]
The inhibition (%) was determined on each test compound prepared according to (1), and the IC50 value on the xanthine oxidase (XOD) inhibition was calculated from the value of inhibition.

T1 sequence (P80457 whole entry): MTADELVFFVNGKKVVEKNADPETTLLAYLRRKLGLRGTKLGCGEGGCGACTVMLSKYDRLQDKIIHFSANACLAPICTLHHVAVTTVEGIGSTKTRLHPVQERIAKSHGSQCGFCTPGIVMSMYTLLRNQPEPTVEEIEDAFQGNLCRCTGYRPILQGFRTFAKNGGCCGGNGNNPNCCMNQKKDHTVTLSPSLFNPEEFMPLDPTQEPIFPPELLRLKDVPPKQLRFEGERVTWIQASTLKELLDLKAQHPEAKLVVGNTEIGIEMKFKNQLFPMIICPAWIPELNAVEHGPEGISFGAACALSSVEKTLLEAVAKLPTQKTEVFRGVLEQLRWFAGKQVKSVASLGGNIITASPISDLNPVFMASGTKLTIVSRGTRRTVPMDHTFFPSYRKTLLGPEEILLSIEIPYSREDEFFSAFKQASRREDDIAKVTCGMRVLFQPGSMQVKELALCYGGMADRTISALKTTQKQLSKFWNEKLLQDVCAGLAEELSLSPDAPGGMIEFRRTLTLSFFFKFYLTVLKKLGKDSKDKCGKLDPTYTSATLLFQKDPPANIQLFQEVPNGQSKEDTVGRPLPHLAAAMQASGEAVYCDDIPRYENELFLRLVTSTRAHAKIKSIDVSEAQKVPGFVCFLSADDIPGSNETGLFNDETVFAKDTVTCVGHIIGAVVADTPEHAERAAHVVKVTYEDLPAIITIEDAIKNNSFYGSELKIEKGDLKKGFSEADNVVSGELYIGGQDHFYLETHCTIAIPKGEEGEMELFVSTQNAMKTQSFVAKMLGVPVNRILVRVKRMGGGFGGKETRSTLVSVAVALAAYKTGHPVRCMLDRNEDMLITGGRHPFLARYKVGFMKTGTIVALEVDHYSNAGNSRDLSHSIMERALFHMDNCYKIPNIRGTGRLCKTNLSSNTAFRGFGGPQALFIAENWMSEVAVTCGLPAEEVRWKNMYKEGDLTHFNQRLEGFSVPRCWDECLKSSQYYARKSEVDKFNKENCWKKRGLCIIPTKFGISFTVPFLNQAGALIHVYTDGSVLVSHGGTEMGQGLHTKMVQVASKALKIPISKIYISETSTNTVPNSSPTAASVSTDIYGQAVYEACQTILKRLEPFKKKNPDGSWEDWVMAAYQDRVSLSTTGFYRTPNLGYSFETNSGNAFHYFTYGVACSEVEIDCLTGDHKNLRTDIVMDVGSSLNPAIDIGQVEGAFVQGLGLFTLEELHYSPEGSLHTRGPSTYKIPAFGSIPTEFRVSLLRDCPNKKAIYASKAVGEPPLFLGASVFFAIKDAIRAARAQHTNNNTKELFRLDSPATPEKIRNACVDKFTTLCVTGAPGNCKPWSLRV

Q: What does the source list for Cc1nc(-c2ccc(C(=O)c3ccccc3)cc2)sc1C(=O)O [Example 20, 2-(4-Benzoylphenyl)-4-methyl-5-thiazolecarboxylic acid]?
A: inhibition at 1 µM [1]: 65%; Swelling ([2]; 10 mg/kg oral, *P < 0.05): 25.4 ± 5.3%; Antibody titer of anti-collagen ([2]; 10 mg/kg oral): 1.88 ± 0.20 μU/ml; Swelling ([2]; 50 mg/kg oral, **P < 0.01): 21.2 ± 4.2%; Antibody titer of anti-collagen ([2]; 50 mg/kg oral): 1.68 ± 0.32 μU/ml; inhibition in vivo at 1 mg/kg [3]: 18%; IC50 [4]: 6 nM and 6.2 nM

Q: For Cc1nc(-c2ccc(OCCC(C)C)c([N+](=O)[O-])c2)sc1C(=O)O [Example 40, 2-(4-Isopentyloxy-3-nitrophenyl)-4-methyl-5-thiazolecarboxylic acid], which inhibition at 1 µM [1] is on record?
A: 36%

Q: What about the inhibition in vivo at 1 mg/kg [3] of the same molecule?
A: 85%

Q: What about the IC50 [4] of the same molecule?
A: 0.67 nM

Q: Which results are given for Cc1nc(-c2ccc(OCC(C)(C)C)c([N+](=O)[O-])c2)sc1C(=O)O [Example 43, 2-(4-neopentyloxy-3-nitrophenyl)-4-methyl-5-thiazolecarboxylic acid]?
A: inhibition at 1 µM [1]: 39%; inhibition in vivo at 1 mg/kg [3]: 85%; IC50 [4]: 0.64 nM

Q: What does the source list for Cc1nc(-c2ccc(OCCC(C)C)c(Cl)c2)sc1C(=O)O [Example 52, 2-(3-Chloro-4-isopentyloxyphenyl)-4-methyl-5-thiazolecarboxylic acid]?
A: inhibition at 1 µM [1]: 33%; inhibition in vivo at 1 mg/kg [3]: 47%; IC50 [4]: 2.7 nM

Q: How did the inhibition at 1 µM [1] turn out when CCOCCOc1ccc(-c2nc(C)c(C(=O)O)s2)cc1Br [Example 64, 2-(3-Bromo-4-(2-ethoxyethyloxy)phenyl)-4-methyl-5-thiazolecarboxylic acid] was run?
A: 28%

Q: What about the inhibition in vivo at 1 mg/kg [3] of the same molecule?
A: 25%

Q: And the IC50 [4]?
A: 2.9 nM

Q: With Cc1nc(-c2cccc(C(F)(F)F)c2)sc1C(=O)O [Example 5, 4-Methyl-2-(3-trifluoromethylphenyl)-5-thiazolecarboxylic acid] as the molecule, how does the inhibition at 1 µM [1] read?
A: 60%

Q: And the inhibition in vivo at 1 mg/kg [3]?
A: 37%

Q: What about the IC50 [4] of the same molecule?
A: 0.63 nM

Q: What does the source list for Cc1ccc(C(=O)c2ccc(-c3nc(C)c(C(=O)O)s3)cc2)c(C)c1 [Example 75, 2-(4-(2,4-Dimethylbenzoyl)phenyl)-4-methyl-5-thiazolecarboxylic acid]?
A: inhibition at 1 µM [1]: 48%; inhibition in vivo at 1 mg/kg [3]: 33%; IC50 [4]: 0.83 nM

Q: Which inhibition at 1 µM [1] does the source give for Cc1nc(-c2cc(C(F)(F)F)cc(C(F)(F)F)c2)sc1C(=O)O [Example 26, 2-(3,5-Bistrifluoromethylphenyl)-4-methyl-5-thiazolecarboxylic acid] here?
A: 57%

Q: What about the inhibition in vivo at 1 mg/kg [3] of the same molecule?
A: 63%

Q: And the IC50 [4]?
A: 5.7 nM

Q: Which inhibition at 1 µM [1] does the source give for Cc1nc(-c2ccc(N3CCOCC3)c([N+](=O)[O-])c2)sc1C(=O)O [Example 45, 4-methyl-2(4-morpholino-3-nitrophenyl)-5-thiazolecarboxylic acid] here?
A: 18%

Q: And the inhibition in vivo at 1 mg/kg [3]?
A: 88%

Q: And the IC50 [4]?
A: 1.8 nM

Q: How did the inhibition at 1 µM [1] turn out when Cc1nc(-c2ccc(OCC(C)C)c(F)c2)sc1C(=O)O [Example 67, 2-(3-fluoro-4-isobutyloxyphenyl)-4-methyl-5-thiazolecarboxylic acid] was run?
A: 48%

Q: And the inhibition in vivo at 1 mg/kg [3]?
A: 50%

Q: And the IC50 [4]?
A: 1.5 nM
